Reference: PMC7044277 (Nature Communications, 2020)
Several values for one entry are separate records, joined by “and”; a condition that tells them apart may be missing. Equal values may be shown once.

Columns and labels:
[1] = system: serotonin receptor of Fig_S10h (subtype not given); assay: β-arrestin2 recruitment (Tango), agonist activity, source data Fig_S10h; type: cell-based, human; settings: drug alone
DRD2 F1103.28L [2] = target: T1, DRD2 F1103.28L (Homo sapiens, UniProt P14416, F110L); assay: Gαi/o-mediated cAMP inhibition (GloSensor), mutant; type: cell-based
T1 construct: expressed in transfected cells; host or cells: HEK293T (ATCC CRL-11268)
T1 sequence (P14416 whole entry F110L): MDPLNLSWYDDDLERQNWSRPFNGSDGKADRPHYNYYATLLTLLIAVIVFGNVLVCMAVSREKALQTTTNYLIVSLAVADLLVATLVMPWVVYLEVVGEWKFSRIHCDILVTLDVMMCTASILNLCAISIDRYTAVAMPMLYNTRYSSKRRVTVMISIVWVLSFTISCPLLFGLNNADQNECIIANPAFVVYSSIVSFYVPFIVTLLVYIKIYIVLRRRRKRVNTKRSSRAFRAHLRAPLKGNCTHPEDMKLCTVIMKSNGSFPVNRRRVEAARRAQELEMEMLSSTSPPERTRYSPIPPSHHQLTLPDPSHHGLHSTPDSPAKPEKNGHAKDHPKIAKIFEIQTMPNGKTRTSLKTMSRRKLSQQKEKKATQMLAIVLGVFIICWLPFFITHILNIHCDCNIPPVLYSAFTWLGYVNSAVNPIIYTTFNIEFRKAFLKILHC

5HT4 = target: T2, 5HT4 (Homo sapiens, UniProt Q13639); assay: β-arrestin2 recruitment (Tango); type: cell-based; settings: Fig_S10n; for β-arrestin2 recruitment response in presence of serotonin (replicate values): +10μM serotonin; for β-arrestin2 recruitment response (dose-response source data, replicate values): drug alone
T2 construct: expressed in transfected cells; host or cells: HTLA cells expressing TEV-fused β-arrestin2
T2 sequence (Q13639 whole entry, the tested form may be a part): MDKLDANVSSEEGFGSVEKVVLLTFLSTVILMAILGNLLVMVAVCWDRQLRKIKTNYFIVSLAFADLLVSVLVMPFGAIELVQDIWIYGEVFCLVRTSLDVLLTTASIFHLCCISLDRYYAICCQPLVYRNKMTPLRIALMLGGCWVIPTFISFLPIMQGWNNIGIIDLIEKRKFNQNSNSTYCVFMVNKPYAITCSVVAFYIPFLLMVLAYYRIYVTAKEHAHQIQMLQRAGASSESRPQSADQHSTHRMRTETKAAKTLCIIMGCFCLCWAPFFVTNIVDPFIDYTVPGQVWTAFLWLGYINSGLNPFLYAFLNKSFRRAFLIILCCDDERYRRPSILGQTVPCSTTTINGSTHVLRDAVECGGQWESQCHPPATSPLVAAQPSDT

[3] = system: serotonin receptor of Fig_S10i (subtype not given); assay: β-arrestin2 recruitment (Tango), agonist activity, source data Fig_S10i; type: cell-based, human; settings: drug alone
DRD3 wild-type = DRD3 wild-type (Homo sapiens, UniProt P35462); assay: Radioligand competition binding, [3H]-N-methylspiperone; settings: DRD3 wild-type; read-out: pKi ± SEM (converted)
Chain of DRD3 wild-type (P35462 whole entry): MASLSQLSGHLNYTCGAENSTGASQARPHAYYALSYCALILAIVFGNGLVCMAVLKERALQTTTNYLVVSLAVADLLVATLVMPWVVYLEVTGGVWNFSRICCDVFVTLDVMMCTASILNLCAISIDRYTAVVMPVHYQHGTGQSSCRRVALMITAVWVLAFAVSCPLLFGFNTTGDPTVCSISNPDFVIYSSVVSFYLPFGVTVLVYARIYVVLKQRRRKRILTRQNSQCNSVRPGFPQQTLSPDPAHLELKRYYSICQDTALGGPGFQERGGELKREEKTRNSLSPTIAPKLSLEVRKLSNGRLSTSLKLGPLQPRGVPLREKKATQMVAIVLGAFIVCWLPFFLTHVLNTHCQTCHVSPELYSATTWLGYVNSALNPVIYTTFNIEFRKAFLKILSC

DRD2 F1103.28L [4] = target: T1, DRD2 F1103.28L; assay: β-arrestin2 recruitment (Tango), mutant; type: cell-based
320 non-olfactory GPCRs = type: cell-based; settings: compound at 1 μM

Q: `CCOc1cccc2cc([C@@H](C)NCC3(O)CCCCC3)oc12` [O4RE6] was tested. Which “response, single replicates of the concentration-response curve” value (“response, single replicates” for short) ([1]; Log[Drug] -6.52) did it give?
A: 15.4121

Q: And the “response, single replicates” value ([1]; Log[Drug] -7)?
A: -9.449 and 43.8621 and 11.6211 and 7.472 and -0.3671 and 7.014 and 9.027 and 5.062 and -2.318

Q: What about the “response, single replicates” value ([1]; Log[Drug] -7.52) of the same molecule?
A: 25.9192 and 27.8404 and -0.5503 and -21.2455 and 4.046 and 14.5317 and -8.748 and -4.947 and 16.7319

Q: And the “response, single replicates” value ([1]; Log[Drug] -8)?
A: 2.165 and -8.081 and -1.811 and 5.963 and -1.683 and -1.147 and 3.049 and 7.499 and 13.7356

Q: What about the “response, single replicates” value ([1]; Log[Drug] -8.52) of the same molecule?
A: -5.579 and -1.044 and 8.071 and 25.4179 and -14.3504 and -12.3048 and 9.427 and 1.454 and -6.523

Q: What about the “response, single replicates” value ([1]; Log[Drug] -9) of the same molecule?
A: 17.8788 and 11.459 and -7.1 and 19.8102 and 1.922 and -5.946 and -1.184 and 8.604 and 6.934

Q: And the “response, single replicates” value ([1]; Log[Drug] -9.52)?
A: -10.7926 and -6.0806 and -1.59 and 6.349 and 24.5524 and -6.94 and -0.1308 and 12.3434 and 15.3584

Q: And the “response, single replicates” value ([1]; Log[Drug] -10)?
A: 15.7757 and 1.351 and 2.221 and 21.6342 and 13.8951 and -8.936 and 0.1938 and 1.6143 and 8.83

Q: What about the “response, single replicates” value ([1]; Log[Drug] -10.52) of the same molecule?
A: 10.0241 and -11.69 and 6.115 and -3.242 and -2.048 and 6.485 and 2.339 and 5.815 and 3.938

Q: What about the “response, single replicates” value ([1]; Log[Drug] -11) of the same molecule?
A: 9.617 and 2.873 and 5.027 and 13.6018 and -3.471 and 16.985 and 36.4073 and 2.626 and 1.374

Q: What about the “response, single replicates” value ([1]; Log[Drug] -11.52) of the same molecule?
A: 17.0328 and 12.1627 and -8.18 and -20.709 and -16.6678 and 9.0957 and -0.3236 and 13.7874 and 20.984

Q: What about the “response, single replicates” value ([1]; Log[Drug] -12) of the same molecule?
A: -3.669 and 13.7874 and -0.578 and 18.9662 and 35.9393 and -1.197 and 0.5748 and 17.3951 and 3.035

Q: And the EC50 (DRD2 F1103.28L [2]; DRD2 F1103.28L (b138 head prints DRD2 F1063.28L))?
A: 1.24 ± 0.75 nM

Q: What about the Emax (DRD2 F1103.28L [2]; read-out: Emax relative to quinpirole response, DRD2 F1103.28L) of the same molecule?
A: 56.4%

Q: And the “β-arrestin2 recruitment response in presence of serotonin (replicate values)” value (5HT4; Log[Drug] -6.52)?
A: 61.872

Q: And the “β-arrestin2 recruitment response (dose-response source data, replicate values)” value (5HT4; Log[Drug] -6.52)?
A: 1.914

Q: And the “β-arrestin2 recruitment response in presence of serotonin (replicate values)” value (5HT4; Log[Drug] -7)?
A: 64.7524 and 57.0569 and 68.7411 and 71.876 and 66.1156 and 64.7823 and 62.9846 and 72.5854 and 58.9141

Q: What about the “β-arrestin2 recruitment response (dose-response source data, replicate values)” value (5HT4; Log[Drug] -7) of the same molecule?
A: 0.4762 and 0.5315 and 0.3036 and 1.47 and 0.6917 and 0.6083 and -0.2126 and 0.07923 and 0.2126

Q: And the “β-arrestin2 recruitment response in presence of serotonin (replicate values)” value (5HT4; Log[Drug] -7.52)?
A: 67.3937 and 54.3976 and 65.3292 and 58.7354 and 62.4375 and 61.2125 and 60.3264 and 67.443 and 67.076

Q: And the “β-arrestin2 recruitment response (dose-response source data, replicate values)” value (5HT4; Log[Drug] -7.52)?
A: 0.4824 and 0.6557 and 1.0009 and 1.276 and 0.8198 and 0.6438 and -0.1108 and 0.08408 and -0.1463

Q: And the “β-arrestin2 recruitment response in presence of serotonin (replicate values)” value (5HT4; Log[Drug] -8)?
A: 65.8409 and 63.3895 and 63.0679 and 59.9271 and 55.4104 and 64.9198 and 50.9713 and 49.466 and 77.9372

Q: What about the “β-arrestin2 recruitment response (dose-response source data, replicate values)” value (5HT4; Log[Drug] -8) of the same molecule?
A: 0.2279 and 0.2043 and 0.8233 and 0.8469 and 0.6458 and 2.318 and -0.27 and -0.308 and 0.6993

Q: What about the “β-arrestin2 recruitment response in presence of serotonin (replicate values)” value (5HT4; Log[Drug] -8.52) of the same molecule?
A: 63.4237 and 62.7587 and 63.6242 and 63.1469 and 61.3792 and 61.5198 and 57.3708 and 61.2149 and 65.253

Q: What about the “β-arrestin2 recruitment response (dose-response source data, replicate values)” value (5HT4; Log[Drug] -8.52) of the same molecule?
A: 1.195 and 1.746 and 0.9636 and 0.6083 and 1.193 and 1.147 and -0.3056 and 0.2118 and 0.0477

Q: And the “β-arrestin2 recruitment response in presence of serotonin (replicate values)” value (5HT4; Log[Drug] -9)?
A: 73.1291 and 64.8356 and 60.6203 and 52.4417 and 65.9365 and 64.5823 and 63.8148 and 65.7381 and 55.6869

Q: And the “β-arrestin2 recruitment response (dose-response source data, replicate values)” value (5HT4; Log[Drug] -9)?
A: 0.9748 and 0.4464 and 1.275 and 1.439 and 1.359 and 0.525 and -0.3751 and 0.5028 and -0.1156

Q: And the “β-arrestin2 recruitment response in presence of serotonin (replicate values)” value (5HT4; Log[Drug] -9.52)?
A: 69.2832 and 67.6123 and 68.9932 and 55.1 and 63.4344 and 64.601 and 58.9998 and 66.4964 and 65.7267

Q: And the “β-arrestin2 recruitment response (dose-response source data, replicate values)” value (5HT4; Log[Drug] -9.52)?
A: 0.9748 and 1.052 and 0.4042 and 0.901 and 0.7365 and 0.6104 and 1.02 and 0.3484 and -0.01698

Q: And the “β-arrestin2 recruitment response in presence of serotonin (replicate values)” value (5HT4; Log[Drug] -10)?
A: 76.2485 and 62.2675 and 64.5873 and 59.8927 and 56.6667 and 68.1219 and 68.0316 and 61.4033 and 67.9677

Q: What about the “β-arrestin2 recruitment response (dose-response source data, replicate values)” value (5HT4; Log[Drug] -10) of the same molecule?
A: 0.629 and 0.5812 and 0.457 and 0.6927 and 0.4885 and 0.9823 and -0.2005 and 5.06 and 0.3864

Q: What about the “β-arrestin2 recruitment response in presence of serotonin (replicate values)” value (5HT4; Log[Drug] -10.52) of the same molecule?
A: 75.7189 and 64.7332 and 70.6094 and 73.5573 and 66.3448 and 67.3771 and 66.768 and 70.3542 and 67.3953

Q: What about the “β-arrestin2 recruitment response (dose-response source data, replicate values)” value (5HT4; Log[Drug] -10.52) of the same molecule?
A: 0.4328 and 0.1577 and 0.7768 and 0.8562 and 0.5281 and 1.361 and 0.08327 and -0.03395 and 0.2724

Q: What about the “β-arrestin2 recruitment response in presence of serotonin (replicate values)” value (5HT4; Log[Drug] -11) of the same molecule?
A: 74.7968 and 75.6357 and 68.127 and 60.4448 and 57.1219 and 66.626 and 65.7178 and 87.5009 and 57.2593

Q: What about the “β-arrestin2 recruitment response (dose-response source data, replicate values)” value (5HT4; Log[Drug] -11) of the same molecule?
A: 0.5557 and 0.7004 and 0.8308 and 2.567 and 0.5635 and 1.27 and -0.1415 and -0.4034 and 0.4066

Q: What about the “β-arrestin2 recruitment response in presence of serotonin (replicate values)” value (5HT4; Log[Drug] -11.52) of the same molecule?
A: 97.2705 and 89.1683 and 77.1935 and 74.2448 and 65.2792 and 55.4573 and 62.6402 and 78.6163 and 88.7629

Q: What about the “β-arrestin2 recruitment response (dose-response source data, replicate values)” value (5HT4; Log[Drug] -11.52) of the same molecule?
A: 0.4266 and 1.996 and 0.1267 and 1.773 and 0.5229 and 1.651 and 0.05093 and 0.01859 and 0.1746

Q: What about the “β-arrestin2 recruitment response in presence of serotonin (replicate values)” value (5HT4; Log[Drug] -12) of the same molecule?
A: 118.392 and 99.4834 and 97.7219 and 77.2104 and 74.4021 and 77.9375 and 116.996 and 81.757 and 92.5544

Q: And the “β-arrestin2 recruitment response (dose-response source data, replicate values)” value (5HT4; Log[Drug] -12)?
A: 0.9382 and 1.326 and 1.032 (2×) and 0.8271 and 0.8656 and -0.4301 and -0.07599 and 0.5061

Q: What about the “response, single replicates” value ([3]; Log[Drug] -11.52) of the same molecule?
A: 7.932 and 1.922 and 1.39 and -3.959 and 2.237 and 14.8084 and -5.287 and -16.0867 and 8.333

Q: And the “response, single replicates” value ([3]; Log[Drug] -12)?
A: 7.248 and 11.8909 and -3.039 and -4.844 and 11.7663 and -11.164 and 10.085 and 0.6399 and 4.277

Q: What about the Ki (DRD3 wild-type) of the same molecule?
A: 115 nM

Q: And the EC50 (DRD2 F1103.28L [4])?
A: 215 nM

Q: And the Emax (DRD2 F1103.28L [4]; read-out: Emax relative to quinpirole response)?
A: 7.76%

Q: What about the “agonism across 320 nonolfactory GPCRs” value (320 non-olfactory GPCRs) of the same molecule?
A: agonist efficacy at DRD2 and DRD3
